Measurements taken from patent publication US9216973B2, “Insecticidal compounds” (Syngenta Participations AG, priority 2008, dated 2015).

Experiments:
Format in all cases: in vivo
[1] = test system: Diabrotica balteata (Corn root worm); experiment: Diabrotica balteata larvae test on artificial diet; conditions: for pest or weed control at 200 ppm: 120 h, 200 ppm (concentration in well 18 ppm), artificial diet, L2 larvae, larval mortality and growth regulation after 5 days; for effect on mortality, feeding behavior, or growth regulation: same protocol, 200 ppm
Method: (§1) This Example illustrates the insecticidal and acaricidal properties of compounds of formula (I). The tests were performed as follows:
(§2) Cotton leaf discs were placed on agar in a 24-well microtiter plate and sprayed with test solutions at an application rate of 200 ppm. After drying, the leaf discs were infested with 5 L1 larvae. The samples were checked for mortality, feeding behavior, and growth regulation 3 days after treatment (DAT). The following compound gave at least 80% control of Spodoptera littoralis: A1, A2, A5, A6, A7, A8, A10, A11, A12, A13, A14, A15, A16, A17, A18, A19, A21, A22, A23, A24, A25, A30, A31, A32, A33, A34, A35, A39, A40, A41 A42, A43, A44, A45, A46, A47, A48, A49, A50, A51, A53, A54, A55, A59, A60, A61, A62. Heliothis virescens (Tobacco budworm): Eggs (0-24 h old) were placed in 24-well microtiter plate on artificial diet and treated with test solutions at an application rate of 200 ppm (concentration in well 18 ppm) by pipetting. After an incubation period of 4 days, samples were checked for egg mortality, larval mortality, and growth regulation. The following compound gave at least 80% control of Heliothis virescens: A1, A2, A3, A4, A5, A6, A7, A8, A10, A11, A12, A13, A14, A15, A16, A18, A19, A21, A22, A24, A25, A30, A31, A32, A33, A34, A35, A37, A38, A39, A40, A42, A43, A44, A45, A46, A47, A48, A49, A50, A51, A55, AA57, A58, A59, A60, A61, A62. Plutella xylostella (Diamond back moth): 24-well microtiter plate (MTP) with artificial diet was treated with test solutions at an application rate of 200 ppm (concentration in well 18 ppm) by pipetting. After drying, the MTP's were infested with L2 larvae (7-12 per well). After an incubation period of 6 days, samples were checked for larval mortality and growth regulation. The following compound gave at least 80% control of Plutella xylostella: A1, A2, A5, A6, A7, A8, A9, A10, A11, A12, A13, A14, A15, A16, A17, A18, A19, A20, A21, A22, A24, A25, A30, A31, A32, A33, A34, A35, A37, A38, A39, A40, A42, A43, A44, A45, A46, A47, A48, A49, A50, A51, A52, A53, A54, A55, A57, A58, A59, A60, A61, A62, B3. Diabrotica balteata (Corn root worm): A 24-well microtiter plate (MTP) with artificial diet was treated with test solutions at an application rate of 200 ppm (concentration in well 18 ppm) by pipetting. After drying, the MTP's were infested with L2 larvae (6-10 per well). After an incubation period of 5 days, samples were checked for larval mortality and growth regulation. The following compound gave at least 80% control of Diabrotica balteata: A1, A2, A5, A6, A7, A10, A11, A12, A13, A14, A15, A16, A17, A18, A19, A21, A22, A24, A25, A30, A31, A32, A33, A34, A35, A38, A39, A40, A42, A43, A44, A45, A46, A47, A48, A49, A50, A59, A60, A61, A62. Thrips tabaci (Onion thrips): Sunflower leaf discs were placed on agar in a 24-well microtiter plate and sprayed with test solutions at an application rate of 200 ppm. After drying, the leaf discs were infested with an […] population of mixed ages. After an incubation period of 7 days, samples were checked for mortality. The following compounds gave at least 80% control of Thrips tabaci: A1, A2, A5, A6, A7, A8, A10, A12, A13, A14, A15, A16, A17, A18, A19, A21, A24, A25, A30, A31, A32, A33, A34, A35, A39, A42, A43, A44, A45, A46, A47, A48, A49, A50, A51, A53, A54, A57, A58, A59, A60, A61, A62. Tetranychus urticae (Two-spotted spider mite): Bean leaf discs on agar in 24-well microtiter plates were sprayed with test solutions at an application rate of 200 ppm. After drying, the leaf discs are infested with mite populations of mixed ages. 8 days later, discs are checked for egg mortality, larval mortality, and adult mortality. The following compound gave at least 80% control of Tetranychus urticae: A1, A2, A4, A5, A6, A7, A8, A10, A11, A12, A13, A14, A15, A16, A17, A18, A19, A20, A21, A22, A30, A31, A32, A33, A34, A35, A39, A40, A41, A42, A43, A44, A45, A46, A47, A48, A49, A50, A51, A53, A54, A55, A57, A59, A60, A61, A62.

[2] = test system: Heliothis virescens (Tobacco budworm); experiment: Heliothis virescens egg test on artificial diet; conditions: for pest or weed control at 200 ppm: 96 h, 200 ppm (concentration in well 18 ppm), eggs 0-24 h old on artificial diet, egg mortality, larval mortality, growth regulation after 4 days, read-out: control of Heliothis virescens; for effect on mortality, feeding behavior, or growth regulation: same protocol, 200 ppm
Method: as §1, §2

[3] = test system: Tetranychus urticae (Two-spotted spider mite); experiment: Tetranychus urticae bean leaf disc spray test; conditions: for pest or weed control at 200 ppm: foliar, 192 h, 200 ppm spray on bean leaf discs, mite populations of mixed ages, egg, larval and adult mortality 8 days later, read-out: control of Tetranychus urticae; for effect on mortality, feeding behavior, or growth regulation: same protocol, 200 ppm
Method: as §1, §2

[4] = test system: Thrips tabaci (Onion thrips); experiment: Thrips tabaci sunflower leaf disc spray test; conditions: for pest or weed control at 200 ppm: foliar, 168 h, 200 ppm spray on sunflower leaf discs, population of mixed ages, mortality after 7 days; for effect on mortality, feeding behavior, or growth regulation: same protocol, 200 ppm
Method: as §1, §2

Compound | pest or weed control at 200 ppm [1] | pest or weed control at 200 ppm [2] | pest or weed control at 200 ppm [3] | pest or weed control at 200 ppm [4] | effect on mortality, feeding behavior, or growth regulation [1] | effect on mortality, feeding behavior, or growth regulation [2] | effect on mortality, feeding behavior, or growth regulation [3] | effect on mortality, feeding behavior, or growth regulation [4]
Cc1cc(N2CC(c3cc(Cl)cc(Cl)c3)(C(F)(F)F)OC2=O)ccc1C(=O)NC1C[S+]([O-])C1 (centres unmarked) [A10] | ≥ 80% | ≥ 80% | ≥ 80% | ≥ 80% |  |  |  | 
Cc1nc2c(C3=NOC(c4cc(Cl)cc(Cl)c4)(C(F)(F)F)C3)ccc(C(=O)NC3CS(=O)(=O)C3)c2o1 (centres unmarked) [A26] |  |  |  |  | little or no effect | little or no effect | little or no effect | little or no effect
Cc1nc2c(C3=NOC(c4cc(Cl)cc(Cl)c4)(C(F)(F)F)C3)ccc(C(=O)NC3C[S+]([O-])C3)c2o1 (centres unmarked) [A28] |  |  |  |  | little or no effect | little or no effect | little or no effect | little or no effect
Cc1cc(C2=NCC(c3cc(Cl)cc(Cl)c3)(C(F)(F)F)C2)ccc1C(=O)NC1(C)CSC1 (centres unmarked) [A47] | ≥ 80% | ≥ 80% | ≥ 80% | ≥ 80% |  |  |  | 
CC1(NC(=O)c2cccc3c(C4=NOC(c5cc(Cl)cc(Cl)c5)(C(F)(F)F)C4)cccc23)CSC1 (centres unmarked) [A36] |  |  |  |  | little or no effect | little or no effect | little or no effect | little or no effect
Cc1cc(C2=NOC(c3cc(Cl)cc(Cl)c3)(C(F)(F)F)C2Cl)ccc1C(=O)NC1(C)CSC1 (centres unmarked) [A33] | ≥ 80% | ≥ 80% | ≥ 80% | ≥ 80% |  |  |  | 
Cc1cc(C2=NN(C)C(c3cc(Cl)cc(Cl)c3)(C(F)(F)F)C2)ccc1C(=O)NC1(C)CSC1 (centres unmarked) [A12] | ≥ 80% | ≥ 80% | ≥ 80% | ≥ 80% |  |  |  | 
Cc1cc(C2CC(c3cc(Cl)cc(Cl)c3)(C(F)(F)F)ON2C)ccc1C(=O)NC1CSC1 (centres unmarked) [A21] | ≥ 80% | ≥ 80% | ≥ 80% | ≥ 80% |  |  |  | 
O=C(NC1CSC1)c1ccc(C2=NOC(c3cc(Cl)cc(Cl)c3)(C(F)(F)F)C2)c2ccccc12 (centres unmarked) [A2] | ≥ 80% | ≥ 80% | ≥ 80% | ≥ 80% |  |  |  | 
Cc1cc(C2=NOC(c3cc(Cl)cc(Cl)c3)(C(F)(F)F)C2F)ccc1C(=O)NC1C[S+]([O-])C1 (centres unmarked) [A62] | ≥ 80% | ≥ 80% | ≥ 80% | ≥ 80% |  |  |  | 
Cc1cc(C2=NCC(c3cc(Cl)cc(Cl)c3)(C(F)(F)F)C2)ccc1C(=O)NC1C[S+]([O-])C1 (centres unmarked) [A48] | ≥ 80% | ≥ 80% | ≥ 80% | ≥ 80% |  |  |  | 
CC1(NC(=O)c2ccc(C3=NOC(c4cc(Cl)cc(Cl)c4)(C(F)(F)F)C3Br)c3ccccc23)CSC1 (centres unmarked) [A43] | ≥ 80% | ≥ 80% | ≥ 80% | ≥ 80% |  |  |  | 
Cc1cc(C2=NOC(c3cc(Cl)cc(Cl)c3)(C(F)(F)F)C2Br)ccc1C(=O)NC1CSC1 (centres unmarked) [A6] | ≥ 80% | ≥ 80% | ≥ 80% | ≥ 80% |  |  |  | 
Cc1cc(C2=NOC(c3cc(Cl)cc(Cl)c3)(C(F)(F)F)C2F)ccc1C(=O)NC1(C)CSC1 (centres unmarked) [A60] | ≥ 80% | ≥ 80% | ≥ 80% | ≥ 80% |  |  |  | 
Cc1cc(C2=NOC(c3cc(Cl)cc(Cl)c3)(C(F)(F)F)C2Cl)ccc1C(=O)NC1CS(=O)(=O)C1 (centres unmarked) [A32] | ≥ 80% | ≥ 80% | ≥ 80% | ≥ 80% |  |  |  | 
Cc1cc(C2=NN(C)C(c3cc(Cl)cc(Cl)c3)(C(F)(F)F)C2)ccc1C(=O)NC1C[S+]([O-])C1 (centres unmarked) [A13] | ≥ 80% | ≥ 80% | ≥ 80% | ≥ 80% |  |  |  | 
Cc1cc(C2=NOC(c3cc(Cl)cc(Cl)c3)(C(F)(F)F)C2F)ccc1C(=O)NC1CS(=O)(=O)C1 (centres unmarked) [A59] | ≥ 80% | ≥ 80% | ≥ 80% | ≥ 80% |  |  |  | 
